Article PMC8326117 (International Journal of Biological Sciences, 2021)

Assays:
ACE2 = ACE2 (Homo sapiens, UniProt Q9BYF1); assay: LSPR assay, binding to ACE2
[1] = mouse, in vivo

Chain of ACE2 (Q9BYF1 18-805): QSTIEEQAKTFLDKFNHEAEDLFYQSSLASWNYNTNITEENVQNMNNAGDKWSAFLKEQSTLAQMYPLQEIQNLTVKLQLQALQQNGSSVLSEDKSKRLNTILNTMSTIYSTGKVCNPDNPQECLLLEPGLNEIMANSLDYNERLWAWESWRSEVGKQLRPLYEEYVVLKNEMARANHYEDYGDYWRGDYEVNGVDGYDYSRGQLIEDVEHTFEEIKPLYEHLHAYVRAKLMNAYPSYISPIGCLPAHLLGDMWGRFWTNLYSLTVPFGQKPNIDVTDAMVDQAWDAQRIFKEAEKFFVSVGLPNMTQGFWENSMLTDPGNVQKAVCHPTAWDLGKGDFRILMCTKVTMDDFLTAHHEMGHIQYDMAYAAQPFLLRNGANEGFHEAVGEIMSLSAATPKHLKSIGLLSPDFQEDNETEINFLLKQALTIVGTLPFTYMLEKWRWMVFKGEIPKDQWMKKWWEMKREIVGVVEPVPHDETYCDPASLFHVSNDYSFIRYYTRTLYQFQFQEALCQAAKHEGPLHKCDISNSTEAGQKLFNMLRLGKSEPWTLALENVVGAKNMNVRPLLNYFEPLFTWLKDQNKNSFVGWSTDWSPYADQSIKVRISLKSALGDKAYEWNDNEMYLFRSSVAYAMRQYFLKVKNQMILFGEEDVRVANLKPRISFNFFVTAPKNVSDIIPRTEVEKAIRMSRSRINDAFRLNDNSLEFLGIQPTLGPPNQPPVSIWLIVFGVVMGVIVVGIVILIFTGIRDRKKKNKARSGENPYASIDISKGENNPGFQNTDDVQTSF

SMILES: CC(C)C[C@H](NC(=O)[C@@H]1CCCN1C(=O)[C@H](Cc1ccccc1)NC(=O)[C@H](Cc1ccc(O)cc1)NC(=O)[C@H](CS)NC(=O)[C@H](CC(N)=O)NC(=O)[C@H](Cc1ccccc1)NC(=O)CNC(=O)[C@H](CCC(=O)O)NC(=O)[C@@H](NC(=O)[C@H](CCCCN)NC(=O)[C@H](CCCCN)NC(=O)[C@H](CCCCN)NC(=O)[C@H](CCCCN)NC(=O)[C@H](CCCCN)NC(=O)[C@@H](N)CCCCN)C(C)C)C(=O)N[C@@H](CCC(N)=O)C(=O)N[C@@H](CO)C(=O)O [AYp28]
- Kd (ACE2): 47.6 nM
- koff (ACE2; pH 7.4): 0.000205 s⁻¹
- kon (ACE2; pH 7.4): 4310 M⁻¹ s⁻¹
- cytotoxicity (HEK293T/hACE2 cells): no significant cytotoxicity
- distribution in livers and kidneys [1]: not in the kidneys and livers
- distribution in lungs and small intestine [1]: preferentially distributed in the lungs and intestine
